Test results reported in ChEMBL document CHEMBL4184320, “Optimization of Selective Mitogen-Activated Protein Kinase Interacting Kinases 1 and 2 Inhibitors for the Treatment of Blast Crisis Leukemia” (J Med Chem, 2018).
Converted amounts (≈) assume the structure as drawn.

Legend:
[1] = molecular target: MAP kinase-interacting serine/threonine-protein kinase 2 (Homo sapiens, UniProt Q9HBH9)
Description: Inhibition of GST-tagged MNK2 (72 to 385 residues) (unknown origin) expressed in Escherichia coli BL21(DE3) using JH3 peptide as substrate preincubated for 10 mins followed by substrate and ATP addition measured after 60 mins

[2] = molecular target: MAP kinase-interacting serine/threonine-protein kinase 1 (Homo sapiens, UniProt Q9BUB5)
Sequence of MAP kinase-interacting serine/threonine-protein kinase 1 (Q9BUB5 whole entry): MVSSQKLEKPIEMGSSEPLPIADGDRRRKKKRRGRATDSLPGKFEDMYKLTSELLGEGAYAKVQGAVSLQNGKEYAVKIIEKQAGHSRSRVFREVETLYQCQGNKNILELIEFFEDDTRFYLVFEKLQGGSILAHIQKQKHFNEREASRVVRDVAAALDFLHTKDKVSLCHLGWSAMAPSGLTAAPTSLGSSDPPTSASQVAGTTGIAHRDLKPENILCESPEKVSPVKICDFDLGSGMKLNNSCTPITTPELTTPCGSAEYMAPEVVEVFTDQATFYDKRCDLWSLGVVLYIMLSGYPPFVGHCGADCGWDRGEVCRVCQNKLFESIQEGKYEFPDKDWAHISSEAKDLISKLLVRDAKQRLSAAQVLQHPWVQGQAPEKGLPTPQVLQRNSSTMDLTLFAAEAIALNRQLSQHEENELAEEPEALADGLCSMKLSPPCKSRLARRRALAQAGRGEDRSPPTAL
Description: Inhibition of GST-tagged MNK1 (37 to 341 residues) (unknown origin) expressed in Escherichia coli BL21(DE3) using JH3 peptide as substrate preincubated for 10 mins followed by substrate and ATP addition measured after 60 mins

[3] = Permeability of the compound by PAMPA; assay type: ADME; settings: read-out: permeability
[4] = Thermodynamic solubility of the compound at pH 4 to 7.4 pION buffer after 18 hrs by UV spectrophotometric analysis; assay type: physicochemical; settings: read-out: Therm_solubility
[5] = Octanol-phosphate buffer partition coefficient, logD of compound at pH 7.4 by HPLC-UV analysis; assay type: physicochemical
[6] = molecular target: MAP kinase-interacting serine/threonine-protein kinase 1/2 (Homo sapiens, UniProt Q9HBH9+Q9BUB5); test: Inhibition of MNK1/2 in human HeLa cells assessed as decrease in eIF4E phosphorylation at Ser209 after 2 hrs by AlphaScreen assay; assay type: cell-based
[7] = Apparent permeability of the compound across apical side to basolateral side in human Caco2 cells by LC-MS/MS analysis; assay type: ADME, cell-based; settings: Caco-2
[8] = Cmax in CD-1 mouse at 5 mg/kg, po administered via gavage as single dose by LC-MS/MS analysis; assay type: ADME, organism-based; set-up: dose 5 mg/kg, route oral; settings: in vivo
[9] = in vitro; settings: mouse, liver microsomes
Description: Half life in mouse liver microsomes at 1 uM in presence of NADPH by LC-MS/MS analysis

[10] = Efflux ratio of apparent permeability in human Caco2 cells by LC-MS/MS analysis; assay type: ADME, cell-based; settings: Caco-2
[11] = AUClast in CD-1 mouse at 5 mg/kg, po administered via gavage as single dose by LC-MS/MS analysis; assay type: ADME, organism-based; set-up: dose 5 mg/kg, time 0 - last, route oral; settings: in vivo
[12] = in vitro; settings: human, liver microsomes
Description: Half life in human liver microsomes at 1 uM in presence of NADPH by LC-MS/MS analysis

[13] = Protein binding in human plasma at […] after 5 hrs by LC-MS/MS analysis; assay type: ADME, cell-free; settings: read-out: PPB (converted)
[14] = Protein binding in mouse plasma at […] after 5 hrs by LC-MS/MS analysis; assay type: ADME, cell-free; settings: read-out: PPB (converted)
[15] = molecular target: Cytochrome P450 2D6 (Homo sapiens, UniProt P10635); test: Inhibition of CYP2D6 in human liver microsomes using dextromethorphan as substrate preincubated for 5 mins followed by NADPH addition by LC-MS/MS analysis; assay type: ADME
Sequence of Cytochrome P450 2D6 (P10635 whole entry): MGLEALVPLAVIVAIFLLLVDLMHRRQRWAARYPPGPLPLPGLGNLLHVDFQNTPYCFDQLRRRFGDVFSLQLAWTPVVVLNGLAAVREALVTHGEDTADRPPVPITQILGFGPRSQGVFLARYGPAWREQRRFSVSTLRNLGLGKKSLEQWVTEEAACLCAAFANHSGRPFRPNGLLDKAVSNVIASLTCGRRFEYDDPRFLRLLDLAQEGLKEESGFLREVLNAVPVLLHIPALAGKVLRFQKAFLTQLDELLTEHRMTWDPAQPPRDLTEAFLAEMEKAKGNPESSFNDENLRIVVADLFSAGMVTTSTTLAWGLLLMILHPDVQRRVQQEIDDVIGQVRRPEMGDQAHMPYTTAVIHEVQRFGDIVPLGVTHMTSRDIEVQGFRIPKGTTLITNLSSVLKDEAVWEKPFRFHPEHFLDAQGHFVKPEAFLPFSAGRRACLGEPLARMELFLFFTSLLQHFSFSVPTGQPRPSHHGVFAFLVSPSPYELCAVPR

[16] = molecular target: Cytochrome P450 3A4 (Homo sapiens, UniProt P08684)
Sequence of Cytochrome P450 3A4 (P08684 whole entry): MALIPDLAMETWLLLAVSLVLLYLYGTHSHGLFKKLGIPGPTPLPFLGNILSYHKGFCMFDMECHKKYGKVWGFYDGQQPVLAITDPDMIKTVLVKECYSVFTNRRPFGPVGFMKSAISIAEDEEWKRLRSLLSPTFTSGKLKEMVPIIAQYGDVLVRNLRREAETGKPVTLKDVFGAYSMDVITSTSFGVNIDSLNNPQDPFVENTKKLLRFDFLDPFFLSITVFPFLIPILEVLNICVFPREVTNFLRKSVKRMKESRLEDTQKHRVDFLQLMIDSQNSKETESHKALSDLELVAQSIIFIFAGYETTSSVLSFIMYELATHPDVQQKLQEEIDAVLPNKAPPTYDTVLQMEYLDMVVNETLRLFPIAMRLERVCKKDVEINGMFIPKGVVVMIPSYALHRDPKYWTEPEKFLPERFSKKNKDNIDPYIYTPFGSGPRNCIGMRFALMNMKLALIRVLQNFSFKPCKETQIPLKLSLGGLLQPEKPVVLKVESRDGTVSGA
Description: Inhibition of CYP3A4 in human liver microsomes using midazolam as substrate preincubated for 5 mins followed by NADPH addition measured after 5 mins by LC-MS/MS analysis

Sequence of MAP kinase-interacting serine/threonine-protein kinase 2 (Q9HBH9 whole entry): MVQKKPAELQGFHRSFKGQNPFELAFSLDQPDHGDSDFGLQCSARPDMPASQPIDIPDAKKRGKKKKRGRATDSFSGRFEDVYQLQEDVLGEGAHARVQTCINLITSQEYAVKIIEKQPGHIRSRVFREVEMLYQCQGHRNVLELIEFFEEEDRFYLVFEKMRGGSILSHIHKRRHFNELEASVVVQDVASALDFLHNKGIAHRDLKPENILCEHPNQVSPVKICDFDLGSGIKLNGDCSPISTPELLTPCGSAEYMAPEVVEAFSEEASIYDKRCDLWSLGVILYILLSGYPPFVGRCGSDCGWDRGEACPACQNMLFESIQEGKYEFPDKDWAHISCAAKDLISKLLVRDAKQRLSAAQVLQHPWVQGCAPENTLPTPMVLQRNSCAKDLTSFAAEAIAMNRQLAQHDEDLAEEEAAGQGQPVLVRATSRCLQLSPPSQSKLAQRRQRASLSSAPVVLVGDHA

Structure (SMILES)	IC50 [1]	IC50 [2]	Papp [3]	solubility thermodynamic at 18 h [4]	logD [5]	IC50 [6]	Papp A→B [7]	Cmax [8]	half-life at 1 µM [9]	efflux ratio [10]	AUC(0-t) [11]	half-life at 1 µM [12]	fraction unbound at 5 h [13]	fraction unbound at 5 h [14]	IC50 [15]	IC50 [16]
CN1CCN(C(=O)c2ccc(-c3cn4c(-c5cccc(O)c5)cnc4cn3)cc2)CC1	742 nM	1300 nM	33.2 ×10⁻⁶ cm/s	116 µg/mL (≈ 281 µM)	2.31	1.33 µM	–	–	–	–	–	–	–	–	–	–
O=C(c1ccc(-c2cn3c(-c4ccc(O)cc4)cnc3cn2)cc1)N1CCOCC1	113 nM	125 nM	50.2 ×10⁻⁶ cm/s	11.5 µg/mL (≈ 28.7 µM)	2.21	0.13 µM	–	–	–	–	–	–	–	–	–	–
NC(=O)c1ccc(-c2cn3c(-c4ccc(O)cc4)cnc3cn2)cc1	193 nM	310 nM	22.7 ×10⁻⁶ cm/s	–	2.03	1.08 µM	–	–	46 min	–	–	60 min	–	–	> 20 µM	> 20 µM
N#Cc1ccc(-c2cnc3ccc(-c4ccc(C(=O)N5CCNCC5)cc4)nn23)cc1	26 nM	16 nM	45.8 ×10⁻⁶ cm/s	115 µg/mL (≈ 282 µM)	2	0.22 µM	1.13 ×10⁻⁶ cm/s	–	42 min	29.9	–	> 60 min	–	–	–	5.6 µM
CC(=O)Nc1cn2c(-c3ccc(O)cc3)cnc2cn1	515 nM	789 nM	–	–	–	> 2.5 µM	–	–	–	–	–	–	–	–	–	–
CN1CCN(C(=O)c2ccc(-c3cn4c(-c5ccccc5O)cnc4cn3)cc2)CC1	5170 nM	9500 nM	–	–	–	–	–	–	–	–	–	–	–	–	–	–
CN(C)C1CCN(C(=O)c2ccc(-c3cn4c(-c5ccc(C#N)cc5)cnc4cn3)cc2)CC1	143 nM	238 nM	64.7 ×10⁻⁶ cm/s	> 45 µg/mL	0.73	0.64 µM	1.14 ×10⁻⁶ cm/s	–	> 60 min	7.57	–	> 60 min	–	–	> 20 µM	> 20 µM
CN1CCN(C(=O)c2ccc(-c3cn4c(-c5ccc(C(F)F)cc5)cnc4cn3)cc2)CC1	336 nM	369 nM	76.2 ×10⁻⁶ cm/s	66.9 µg/mL (≈ 150 µM)	2.55	1.63 µM	–	–	–	–	–	–	–	–	–	–
N#Cc1ccc(-c2cnc3cnc(-c4ccc(C(=O)N5CCOCC5)cc4)cn23)cc1	454 nM	570 nM	43.1 ×10⁻⁶ cm/s	11.1 µg/mL (≈ 27.1 µM)	1.77	0.748 µM	17.9 ×10⁻⁶ cm/s	–	> 60 min	1.73	–	> 60 min	–	–	> 20 µM	> 20 µM
CN1CCN(C(=O)c2ccc(-c3cn4c(-c5ccc(C(=O)NO)cc5)cnc4cn3)cc2)CC1	31 nM	60 nM	–	–	–	> 2.5 µM	–	–	–	–	–	–	–	–	–	–

Continued by falling IC50 [1], values first:

IC50 [1]	IC50 [2]	Papp [3]	solubility thermodynamic at 18 h [4]	logD [5]	IC50 [6]	Papp A→B [7]	Cmax [8]	half-life at 1 µM [9]	efflux ratio [10]	AUC(0-t) [11]	half-life at 1 µM [12]	fraction unbound at 5 h [13]	fraction unbound at 5 h [14]	IC50 [15]	IC50 [16]	Structure (SMILES)
1430 nM	2680 nM	–	–	–	1.92 µM	–	–	–	–	–	–	–	–	–	–	CN1CCN(C(=O)c2ccc(-c3cn4c(-c5ccccc5)cnc4cn3)cc2)CC1
1080 nM	3350 nM	–	–	–	–	–	–	–	–	–	–	–	–	–	–	O=C(Nc1cn2c(-c3ccc(O)cc3)cnc2cn1)c1ccccc1
415 nM	528 nM	–	–	–	0.819 µM	–	–	–	–	–	–	–	–	–	–	Oc1ccc(-c2cnc3cnc(-c4ccccc4)cn23)cc1
410 nM	600 nM	–	–	–	1.21 µM	–	–	–	–	–	–	–	–	–	–	Cc1ccc(-c2cnc3cnc(-c4ccc(C(=O)N5CCN(C)CC5)cc4)cn23)cc1
389 nM	574 nM	87.4 ×10⁻⁶ cm/s	90.4 µg/mL (≈ 194 µM)	2.95	1.99 µM	–	–	–	–	–	–	–	–	–	–	CN1CCN(C(=O)c2ccc(-c3cn4c(-c5ccc(C(F)(F)F)cc5)cnc4cn3)cc2)CC1
355 nM	700 nM	0.1 ×10⁻⁶ cm/s	> 22 µg/mL	-1.37	> 2.5 µM	–	–	–	–	–	–	–	–	–	–	CN1CCN(C(=O)c2ccc(-c3cn4c(-c5ccc(C(=O)O)cc5)cnc4cn3)cc2)CC1
217 nM	331 nM	71.3 ×10⁻⁶ cm/s	118 µg/mL (≈ 273 µM)	2.96	0.759 µM	–	–	–	–	–	–	–	–	–	–	CN1CCN(C(=O)c2ccc(-c3cn4c(-c5ccc(Cl)cc5)cnc4cn3)cc2)CC1
187 nM	294 nM	1.78 ×10⁻⁶ cm/s	126 µg/mL (≈ 286 µM)	0.98	> 2.5 µM	–	–	–	–	–	–	–	–	–	–	CN1CCN(C(=O)c2ccc(-c3cn4c(-c5ccc(C(N)=O)cc5)cnc4cn3)cc2)CC1
160 nM	224 nM	2.82 ×10⁻⁶ cm/s	144 µg/mL (≈ 326 µM)	1.68	> 2.5 µM	–	–	–	–	–	–	–	–	–	–	CC(=O)N1CCN(C(=O)c2ccc(-c3cn4c(-c5ccc(O)cc5)cnc4cn3)cc2)CC1
140 nM	284 nM	34.7 ×10⁻⁶ cm/s	114 µg/mL (≈ 276 µM)	2.25	0.189 µM	–	–	–	–	–	–	–	–	–	–	CN1CCN(C(=O)c2ccc(-c3cn4c(-c5ccc(O)cc5)cnc4cn3)cc2)CC1
72 nM	84 nM	81.9 ×10⁻⁶ cm/s	137 µg/mL (≈ 325 µM)	2.48	0.229 µM	5.43 ×10⁻⁶ cm/s	–	11 min	4.84	–	20 min	0.003	0.0967	> 20 µM	3.9 µM	CN1CCN(C(=O)c2ccc(-c3ccc4ncc(-c5ccc(C#N)cc5)n4c3)cc2)CC1
25 nM	20 nM	25 ×10⁻⁶ cm/s	86 µg/mL (≈ 204 µM)	2.82	0.326 µM	14.6 ×10⁻⁶ cm/s	–	23 min	4.84	–	17 min	0.001	0.041	> 20 µM	> 20 µM	CN1CCN(C(=O)c2ccc(-c3ccc4ncc(-c5ccc(C#N)cc5)n4n3)cc2)CC1
11 nM	9 nM	75.3 ×10⁻⁶ cm/s	148 µg/mL (≈ 328 µM)	2.19	0.431 µM	3 ×10⁻⁶ cm/s	69 ng/mL	> 60 min	13.3	347 ng·h/mL	47 min	–	–	–	–	CN(C)C1CCN(C(=O)c2ccc(-c3ccc4ncc(-c5ccc(C#N)cc5)n4n3)cc2)CC1
